This note sets out measurements from patent US10981879B2, “Thioether triazolopyridine and triazolopyrimidine inhibitors of myeloperoxidase” (BRISTOL-MYERS SQUIBB COMPANY, priority 2014, dated 2021).

Some results are limits rather than exact numbers.

The test deals with myeloperoxidase (MPO) (Homo sapiens (Human), UniProt P05164). Kind of test: MPO chlorination assay (APF). Format: biochemical. Particulars: MPO chlorination assay, ranges given; read-out: MPO chlorination assay IC50. Here is the method: MPO chlorination activity was measured in 100 mM KPi (pH 7.4) by utilizing the non-fluorescent reagent Aminophenyl fluorescein (APF, Invitrogen catalog #A36003). APF is cleaved by (—OCl) to yield the fluorescent compound fluorescein. Reactions were carried out in 50 μL total volume by adding a 25 μL mixture of 200 pM myeloperoxidase and 120 mM NaCl to 100 nL inhibitor in 100% DMSO in a 384 well, non-binding surface clear bottom plate (CORNING® #3655). Enzyme, inhibitor, and chloride were preincubated for ten minutes at rt.
Sequence of myeloperoxidase (MPO) (P05164 49-745): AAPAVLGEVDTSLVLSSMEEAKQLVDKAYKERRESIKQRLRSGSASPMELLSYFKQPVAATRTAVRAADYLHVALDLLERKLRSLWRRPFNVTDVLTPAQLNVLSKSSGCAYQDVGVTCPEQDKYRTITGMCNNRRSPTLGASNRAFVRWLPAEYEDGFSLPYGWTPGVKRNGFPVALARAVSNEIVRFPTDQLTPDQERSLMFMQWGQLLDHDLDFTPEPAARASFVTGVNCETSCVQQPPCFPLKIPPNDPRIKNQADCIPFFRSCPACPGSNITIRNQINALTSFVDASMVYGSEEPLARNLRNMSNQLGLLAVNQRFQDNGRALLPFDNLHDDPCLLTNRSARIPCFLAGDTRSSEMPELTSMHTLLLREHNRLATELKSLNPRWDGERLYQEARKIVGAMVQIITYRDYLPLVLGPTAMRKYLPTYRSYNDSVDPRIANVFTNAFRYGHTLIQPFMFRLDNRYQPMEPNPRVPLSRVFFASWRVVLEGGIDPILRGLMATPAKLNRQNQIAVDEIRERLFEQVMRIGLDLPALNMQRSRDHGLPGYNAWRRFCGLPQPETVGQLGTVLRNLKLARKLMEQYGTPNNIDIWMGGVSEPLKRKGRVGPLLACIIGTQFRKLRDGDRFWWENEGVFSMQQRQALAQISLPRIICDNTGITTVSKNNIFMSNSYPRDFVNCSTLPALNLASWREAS
After the ten minute preincubation, 25 μL of an APF mixture containing […], 120 mM NaCl and 10 μM H2O2 was added to the plate using the internal dispensing system of a Hammatsu FDSS 6000. Kinetic determinations were carried out immediately on the FDSS 6000 (3 minute kinetic read, 1 read every second, ex: 485 nm, em: 535 nm). IC50 values for inhibitors were calculated by taking the slope of the linear portion of the kinetic measurement (20 seconds to ˜80-120 secs). […]
[formula] where A=minimal Y value (activity level of inhibited sample), B=maximal Y value (activity level of uninhibited sample), C=Log IC50, D=Hill Slope, x=concentration of inhibitor. EPX Bromination Assay
One may read the IC50 as the concentration at which inhibition is half-maximal. Consider `Nc1cc(SCc2c(Cl)ccnc2Cl)c2nn[nH]c2n1` [Example 48, 7-(((2,4-dichloropyridin-3-yl)methyl)thio)-3H-[1,2,3] triazolo[4,5-b]pyridin-5-amine], for which the concentration for half-maximal inhibition (IC50) was in the range of 60 to 200 nM.

For the compound `Nc1cc(SCc2cc(OC(F)(F)F)ccc2F)c2nn[nH]c2n1` [Example 49, 7-((2-fluoro-5-(trifluoromethoxy)benzyl)thio)-3H-[1,2,3]triazolo[4,5-b]pyridin-5-amine], the IC50 lay in the range of 60 to 200 nM.

As to `COC(=O)C(Sc1cc(N)nc2[nH]nnc12)c1ccccc1Cl` (stereo not drawn) [Example 50, methyl 2-((5-amino-3H-[1,2,3]triazolo[4,5-b]pyridin-7-yl)thio)-2-(2-chlorophenyl)acetate], the IC50 lay in the range of 60 to 200 nM.

On to `COC(=O)c1ccc(F)c(CSc2cc(N)nc3[nH]nnc23)c1` [Example 52, methyl 3-(((5-amino-3H-[1,2,3]triazolo[4,5-b]pyridin-7-yl)thio)methyl)-4-fluorobenzoate], for which the IC50 was 60 to 200 nM.

In the case of `CS(=O)(=O)c1ccc(F)cc1CSc1cc(N)nc2[nH]nnc12` [Example 53, 7-((5-fluoro-2-(methylsulfonyl)benzyl)thio)-3H-[1,2,3]triazolo[4,5-b]pyridin-5-amine], the IC50 is 60 to 200 nM.

For `CC(Sc1cc(N)nc2[nH]nnc12)c1ccccc1S(C)(=O)=O` (stereo not drawn) [Example 54, 7-((1-(2-(methylsulfonyl)phenyl)ethyl)thio)-3H-[1,2,3]triazolo[4,5-b]pyridin-5-amine], the IC50 lay in the range of 60 to 200 nM.

Consider `CC1(NC(=O)c2ccc(F)c(CSc3cc(N)nc4[nH]nnc34)c2)CC1` [Example 55, 3-(((5-amino-3H-[1,2,3]triazolo[4,5-b]pyridin-7-yl)thio)methyl)-4-fluoro-N-(1-methylcyclopropyl) benzamide], for which the IC50 was in the range of 200 to 1000 nM.

Consider `N#Cc1cc(F)ccc1CSc1cc(N)nc2[nH]nnc12` [Example 56, 2-(((5-amino-3H-[1,2,3]triazolo[4,5-b]pyridin-7-yl)thio)methyl)-5-fluorobenzonitrile], for which the half-maximal inhibitory concentration (IC50) is at most 60 nM.

For `Cc1cc(CSc2cc(N)nc3[nH]nnc23)n(C)n1` [Example 58, 7-(((1,3-dimethyl-1H-pyrazol-5-yl)methyl)thio)-3H-[1,2,3]triazolo[4,5-b] pyridin-5-amine], the IC50 was 200 to 1000 nM.

`Cc1nn(C)c(Cl)c1CSc1cc(N)nc2[nH]nnc12` [Example 60, 7-(((5-chloro-1,3-dimethyl-1H-pyrazol-4-yl)methyl)thio)-3H-[1,2,3]triazolo[4,5-b]pyridin-5-amine]: the IC50 is at most 60 nM.

`Nc1cc(SCc2cc(Cl)ccc2S(=O)(=O)Cc2ccccc2)c2nn[nH]c2n1` [Example 61, 7-((2-(benzylsulfonyl)-5-chlorobenzyl)thio)-3H-[1,2,3]triazolo[4,5-b]pyridin-5-amine]: the 50% inhibitory concentration (IC50) fell in the range of 60 to 200 nM.

On to `Nc1cc(SCc2nn(Cc3ccccc3)c3ccccc23)c2nn[nH]c2n1` [Example 62, 7-(((1-benzyl-1H-indazol-3-yl)methyl)thio)-3H-[1,2,3] triazolo[4,5-b]pyridin-5-amine], for which the 50% inhibitory concentration (IC50) was in the range of 60 to 200 nM.

`CCc1nn(-c2ccccc2)nc1CSc1cc(N)nc2[nH]nnc12` [Example 63, 7-(((5-ethyl-2-phenyl-2H-1,2,3-triazol-4-yl)methyl)thio)-3H-[1,2,3]triazolo[4,5-b]pyridin-5-amine]: the IC50 lay within 60 to 200 nM.

With `Nc1cc(SCc2c(Cl)cccc2S(N)(=O)=O)c2nn[nH]c2n1` [Example 64, 2-(((5-amino-3H-[1,2,3]triazolo[4,5-b]pyridin-7-yl)thio)methyl)-3-chlorobenzenesulfonamide], the 50% inhibitory concentration (IC50) was at most 60 nM.

`Cc1nn(-c2ccccc2)nc1CSc1cc(N)nc2[nH]nnc12` [Example 65, 7-(((5-methyl-2-phenyl-2H-1,2,3-triazol-4-yl)methyl)thio)-3H-[1,2,3]triazolo[4,5-b]pyridin-5-amine]: the IC50 was 60 to 200 nM.

`Cc1nn(-c2cccc(F)c2)nc1CSc1cc(N)nc2[nH]nnc12` [Example 67, 7-(((2-(3-fluorophenyl)-5-methyl-2H-1,2,3-triazol-4-yl)methyl)thio)-3H-[1,2,3] triazolo[4,5-b]pyridin-5-amine]: the IC50 was 200 to 1000 nM.

As for `N#Cc1cccc(F)c1CSc1cc(N)nc2[nH]nnc12` [Example 68, 2-(((5-amino-3H-[1,2,3]triazolo[4,5-b]pyridin-7-yl)thio)methyl)-3-fluorobenzonitrile], the IC50 was at most 60 nM.

Regarding `COc1cccc(-n2nc(C)c(CSc3cc(N)nc4[nH]nnc34)n2)c1` [Example 69, 7-(((2-(3-methoxyphenyl)-5-methyl-2H-1,2,3-triazol-4-yl)methyl)thio)-3H-[1,2,3] triazolo[4,5-b]pyridin-5-amine], the IC50 was 200 to 1000 nM.

Consider `Cn1nc(-c2ccccc2)c(CSc2cc(N)nc3[nH]nnc23)c1Cl` [Example 71, 7-(((5-chloro-1-methyl-3-phenyl-1H-pyrazol-4-yl)methyl)thio)-3H-[1,2,3] triazolo[4,5-b]pyridin-5-amine], for which the 50% inhibitory concentration (IC50) is 200 to 1000 nM.

As to `N#Cc1ccc(Cl)cc1CSc1cc(N)nc2[nH]nnc12` [Example 73, 2-(((5-amino-3H-[1,2,3]triazolo[4,5-b]pyridin-7-yl)thio)methyl)-4-chlorobenzonitrile], the half-inhibitory concentration (IC50) was in the range of 60 to 200 nM.

Turning to `N#Cc1cc(Cl)ccc1CSc1cc(N)nc2[nH]nnc12` [Example 74, 2-(((5-amino-3H-[1,2,3]triazolo[4,5-b]pyridin-7-yl)thio)methyl)-5-chlorobenzonitrile], the half-maximal inhibitory concentration (IC50) was at most 60 nM.

With `N#Cc1c(Cl)cccc1CSc1cc(N)nc2[nH]nnc12` [Example 75, 2-(((5-amino-3H-[1,2,3]triazolo[4,5-b]pyridin-7-yl)thio)methyl)-6-chlorobenzonitrile], the IC50 was in the range of 60 to 200 nM.

In the case of `Cc1nn(Cc2ccccc2)c(Cl)c1CSc1cc(N)nc2[nH]nnc12` [Example 76, 7-(((1-benzyl-5-chloro-3-methyl-1H-pyrazol-4-yl)methyl)thio)-3H-[1,2,3] triazolo[4,5-b]pyridin-5-amine], the IC50 lay in the range of 60 to 200 nM.

Take `Cn1nc(C(F)(F)F)c(CSc2cc(N)nc3[nH]nnc23)c1Cl` [Example 78, 7-(((5-chloro-1-methyl-3-(trifluoromethyl)-1H-pyrazol-4-yl)methyl)thio)-3H-[1,2,3]triazolo[4,5-b] pyridin-5-amine]: the IC50 was at most 60 nM.

Take `Cc1nn(CC2CC2)c(C)c1CSc1cc(N)nc2[nH]nnc12` [Example 80, 7-(((1-(cyclopropylmethyl)-3,5-dimethyl-1H-pyrazol-4-yl)methyl)thio)-3H-[1,2,3] triazolo[4,5-b]pyridin-5-amine]: the IC50 was 60 to 200 nM.

As to `Cc1nn(C2CC2)c(C)c1CSc1cc(N)nc2[nH]nnc12` [Example 81, 7-(((1-cyclopropyl-3,5-dimethyl-1H-pyrazol-4-yl)methyl)thio)-3H-[1,2,3] triazolo[4,5-b]pyridin-5-amine], the 50% inhibitory concentration (IC50) lay in the range of 60 to 200 nM.

As to `Cc1nn(C2CCC2)c(C)c1CSc1cc(N)nc2[nH]nnc12` [Example 82, 7-(((1-cyclobutyl-3,5-dimethyl-1H-pyrazol-4-yl)methyl)thio)-3H-[1,2,3] triazolo[4,5-b]pyridin-5-amine], the half-maximal inhibitory concentration (IC50) lay within 60 to 200 nM.

For `N#Cc1ccc(C2CC2)cc1CSc1cc(N)nc2[nH]nnc12` [Example 87, 2-(((5-amino-3H-[1,2,3]triazolo[4,5-b]pyridin-7-yl)thio)methyl)-4-cyclopropylbenzonitrile], the IC50 is at most 60 nM.

With `N#Cc1cccc(C2CC2)c1CSc1cc(N)nc2[nH]nnc12` [Example 89, 2-(((5-amino-3H-[1,2,3]triazolo[4,5-b]pyridin-7-yl)thio)methyl)-3-cyclopropylbenzonitrile], the concentration for half-maximal inhibition (IC50) lay in the range of 60 to 200 nM.

On to `N#Cc1cccc(CSc2cc(N)nc3[nH]nnc23)c1` [Example 91, 3-(((5-amino-3H-[1,2,3]triazolo[4,5-b]pyridin-7-yl)thio)methyl)benzonitrile], for which the IC50 is at most 60 nM.

As for `Nc1cc(SCc2ccccc2-c2ccccn2)c2nn[nH]c2n1` [Example 92, 7-((2-(pyridin-2-yl)benzyl)thio)-3H-[1,2,3]triazolo[4,5-b]pyridin-5-amine], the IC50 lay within 60 to 200 nM.

Turning to `CN(C)Cc1cccc(CSc2cc(N)nc3[nH]nnc23)c1` [Example 93, 7-((3-((dimethylamino)methyl)benzyl)thio)-3H-[1,2,3]triazolo[4,5-b]pyridin-5-amine], the 50% inhibitory concentration (IC50) was at most 60 nM.

`Nc1cc(SCc2ccccc2CN2CCOCC2)c2nn[nH]c2n1` [Example 94, 7-((2-(morpholinomethyl)benzyl)thio)-3H-[1,2,3] triazolo[4,5-b]pyridin-5-amine]: the IC50 lay in the range of 60 to 200 nM.

In the case of `Nc1cc(SCc2ccccc2CN2CCC2)c2nn[nH]c2n1` [Example 95, 7-((2-(azetidin-1-ylmethyl)benzyl)thio)-3H-[1,2,3] triazolo[4,5-b]pyridin-5-amine], the IC50 fell in the range of 60 to 200 nM.

With `CN(C)Cc1ccccc1CSc1cc(N)nc2[nH]nnc12` [Example 96, 7-((2-((dimethylamino)methyl)benzyl)thio)-3H-[1,2,3]triazolo[4,5-b]pyridin-5-amine], the IC50 is 60 to 200 nM.

Consider `Nc1cc(SCc2ccccc2CN2CCCCC2)c2nn[nH]c2n1` [Example 97, 7-((2-(piperidin-1-ylmethyl)benzyl)thio)-3H-[1,2,3] triazolo[4,5-b]pyridin-5-amine], for which the IC50 is 60 to 200 nM.
